The results in this text go back to US7416870B2, “Methods of directing C-O bond formation utilizing a type II polyketide synthase system” (Wisconsin Alumni Research Foundation, priority 2002, dated 2008).

Assay [1] relates to NonL. Put plainly: In vitro assay of NonL as a CoA ligase (conversion of acids to CoA esters, HPLC). In kind it is biochemical, Streptomyces griseus. From the text:
Expression of nonL and characterization of NonL as a CoA ligase. The nonL gene was amplified from pBS2013 by PCR with forward primer of 5′-[…]-3′ (SEQ ID NO:12) (the NdeI site is underlined) and reverse primer of 3′-[…]-5′ (SEQ ID NO:13)(the EcoRI site is underlined) and cloned as a 1.7-kb NdeI-EcoRI fragment into the same sites of pET28a (Novagen, Madison, Wis.) to yield pBS2023. The expression of nonL in E. coli BL-21 (DE-3) (pBS2023) and purification of the resulting NonL protein by affinity chromatography on Ni-NTA resin were carried out under the standard conditions recommended by Novagen (FIG. 10). The incubation temperature was lowered to 15° C. to improve the solubility.
For in vitro assay of NonL as a CoA ligase, the complete assay solution (50 μl) consisted of 2 mM ATP, 2 mM CoA, 2 mM (±)-3, 10 mM KCl, 2 mM DTT, 5 mM MgCl2, 50 to 800 nM NonL in 10 mM Tris-HCl, pH 8.0. The reaction mixture was incubated at 30° C. for 2 hr and analyzed by HPLC on an Alltima C18 column (4.6×250 mm, 5μ, 100 Å, Alltech, Deerfield, Ill.). The column was first eluted in 20 mM NH4Ac, pH 5.8, for 5 min, followed by linear gradient from 0% to 50% CH3CN in 20 mM NH4Ac, pH 5.8 for 10 min, and maintained at 50% CH3CN in 20 mM NH4Ac for an additional 10 min, with flow rate of 0.8 ml/min and detection at 260 nm.
On the basis of its high sequence homology to a family of CoA ligases, the inventors reasoned that NonL, rather than directly contributing to the C—O bond-forming steps, instead activates (±)-3 into CoA esters (±)-2 that are then tetramerized into 1 by the NonJK KSs. To validate this hypothesis, the inventors expressed nonL in E. coli, purified NonL as a His6-tagged fusion protein (FIG. 10), and characterized NonL as a CoA ligase. The inventors monitored the in vitro assay of NonL by HPLC analysis: NonL catalyzes the conversion of (±)-3 to (±)-2, requiring CoA and ATP as co-substrates. Under the condition examined, 80% of (±)-3 was converted to (±)-2 in 2 hrs, confirming that NonL recognizes both (+)- and (−)-3 as substrates (FIG. 7). The identity of (±)-2 was verified by ESI-MS, yielding a characteristic (M−2H)^2− ion at m/z=474.7, consistent with the molecular formula of C31H52N7O19P3S.
In this particular experiment, the inventors expanded the category of synthetic 8 derivatives to determine the degree of flexibilities of each process in macrotetrolide biosynthesis. With minor modifications in the previously described method, (±)-8-n-propyl-nonactate (8), (±)-epi-8-n-propyl-nonactate (A), (±)-2-n-propyl-nonactate (B), and (±)-epi-2-n-propyl-nonactate (C) were prepared. These four compounds were tested for the CoA-activated by using purified NonL. […] The chromosomal DNA fragment encompassing nonJ and nonL from S. griseus DSM40695 was subcloned into pIJ4123 under the control of thiostrepton inducible promoter (tipAp) to generate pBS2045 that was introduced into S. lividans TK-24. For pIJ4123, see the reference; Takano, E.; White, J.; Thompson, C. J.; Bibb, M. J. Gene 1995, 160, 133.

Assay [2] has as its system NonJ. Nature of the assay: Dimer formation with cell-free extract of S. lividans (pBS2045) harboring nonL and nonJ. In kind it is biochemical, Streptomyces griseus. The conditions noted are these: CFE of S. lividans (pBS2045). As for the experimental part:
Cell-free extract (CFE) preparation: S. lividans (pBS2045) were grown on Yeast Extract-Malt Extract (YEME, 34% sucrose) media supplemented with kanamycin (50 μg/ml), at 30° C. and 300 rpm for 1 d and added with thiostrepton (5 μg/ml). The thiostrepton-treated culture was maintained in the same condition for 1 d and then harvested by centrifugation (13,600 g, 20 min, 4° C.). Cell were lysed in 30 ml of 100 mM sodium phosphate buffer (pH, 8.0)-1 mM EDTA-50 mM KCl-10% glycerol with lysozyme (2 mg/ml) for 30 min at 4° C., sonicated for thirty 10-sec bursts at 300 W with a 30-sec cooling period between each burst. […]
Conditions for CFE-assay and chemical analysis: The assay solution consisted of 1 to 2 mM each of (±)-6, CoA, and ATP and 0.8 mg/ml of protein in 10 mM Tris-Cl (pH, 8.0)-10 mM KCl-2 mM DTT-5 mM MgCl2, and incubated at 30° C. for 1 h to 3 hs. […] The organic layer was analyzed for 1 by Thin-Layer Chromatography (TLC), Evaporative Light-Scattering Detector (ELSD)-High Performance Liquid Chromatography (HPLC), and positive Matrix-Assisted Laser Desorption Ionization (MALDI)-Mass Spectrometry (MS) analysis as previously described.^5d The aqueous layer was analyzed by HPLC with UV-detection, from which relevant peaks were collected and subjected to negative MALDI-MS analysis. […]

Sequence of NonJ (as listed by the source): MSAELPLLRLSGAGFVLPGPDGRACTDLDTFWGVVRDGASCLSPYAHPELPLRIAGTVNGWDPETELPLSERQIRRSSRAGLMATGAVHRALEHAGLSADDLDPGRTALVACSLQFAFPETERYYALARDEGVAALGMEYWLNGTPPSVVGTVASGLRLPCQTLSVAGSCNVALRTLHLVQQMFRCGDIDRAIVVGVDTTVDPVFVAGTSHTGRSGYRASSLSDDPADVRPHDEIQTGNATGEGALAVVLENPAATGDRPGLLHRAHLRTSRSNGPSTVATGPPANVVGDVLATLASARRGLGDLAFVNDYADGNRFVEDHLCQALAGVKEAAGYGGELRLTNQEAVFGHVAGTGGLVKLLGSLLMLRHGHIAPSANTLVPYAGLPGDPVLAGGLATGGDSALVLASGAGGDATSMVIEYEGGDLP

On to `CC(O)CC1CCC(C(C)C(=O)O)O1` (racemic) [(±)-3, nonactic acid], for which, in assay [1] (in 2 hrs, 30° C., 2 mM ATP, 2 mM CoA, 2 mM (±)-3), the “conversion of (±)-3 to (±)-2 by NonL” value amounted to 80%.
For the compound (±)-2-n-propyl-nonactate [B], in assay [1], the “conversion into CoA derivative by purified NonL” value (from here on “conversion into CoA derivative”) was “no conversion was evident”.
Turning to (±)-8-n-propyl nonactate [compound 8], the “conversion into CoA derivative” value in assay [1] was “efficiently converted”. For the same compound, the “dimer (dimeric CoA ester) formation by NonJ” value in assay [2] was “converted the dimeric 8-CoA”.
As to (±)-epi-2-n-propyl-nonactate, the “conversion into CoA derivative” value in assay [1] is reported as “no conversion was evident”.
In the case of (±)-epi-8-n-propyl-nonactate, the “conversion into CoA derivative” value in assay [1] is on record as “efficiently converted”. Also, the “dimer (dimeric CoA ester) formation by NonJ” value in assay [2] is “no dimeric A-CoA was found”.
